{
  "source": "patent US20070066801A1",
  "about": "(priority 2003, published 2007)",
  "test_system": "mutant F. novicida knock-outs",
  "type": "binding, Francisella novicida",
  "data": [
    {"sequence": "TSITPWFFLSRP [phage 4-4-2]", "values": [
      {"measurement": "expected binding of phage to knock-out mutants inactivated for the cell surface marker", "value": "absence of specific binding"}
    ]}
  ]
}
